Test: Inhibition of rabbit skeletal muscle myosin-2 ATPase incubated for 20 mins followed by ATP addition and measured after 20 mins

**Q.** For Oc1c(Br)cc(Br)cc1-c1[nH]c(Br)c(Br)c1Br [pentabromopseudilin], which IC50 is on record?
**A.** The IC50 was 5.1 µM.

Source: BindingDB's records for doi:10.1016/j.bmc.2020.115928 (Tu Dresden, 2021)
